Laboratory results reported in patent US10323036B2 (Nimbus Lakshmi, Inc., priority 2016, dated 2019).
Read-outs that look alike come from different tables or passages of the source.

Target: human TYK2 (JH2domain-pseudokinase) (Homo sapiens (Human), UniProt P29597)
Assay: TYK2 JH2 Domain Binding Assay (KINOMEscan)
Settings: read-out: JH2 Kd
[1] = Table 5, Tyk2 JH2 Domain Binding Assay

Sequence of human TYK2 (JH2domain-pseudokinase) (P29597 556-888): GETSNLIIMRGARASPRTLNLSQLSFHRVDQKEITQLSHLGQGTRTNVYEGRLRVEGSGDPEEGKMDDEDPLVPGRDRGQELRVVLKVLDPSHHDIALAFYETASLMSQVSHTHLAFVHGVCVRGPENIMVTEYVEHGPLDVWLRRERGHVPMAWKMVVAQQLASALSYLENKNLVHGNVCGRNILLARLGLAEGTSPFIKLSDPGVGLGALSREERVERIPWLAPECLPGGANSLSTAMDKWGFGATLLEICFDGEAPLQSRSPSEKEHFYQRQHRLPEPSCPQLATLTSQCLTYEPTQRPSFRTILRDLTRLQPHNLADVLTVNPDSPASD

Kd (Table 4, JH2 binding assay) [pM] | Kd [1] [pM] | Structure (SMILES)
> 10000 |  | COc1c(C#N)cccc1Nc1cc(Nc2ccc(C)nn2)nc2[nH]n(C)c(=O)c12 [Compound I-38]
1000 to 10000 |  | COc1c(F)cccc1Nc1cc(Nc2cc(C)ccn2)nc2[nH]n(C)c(=O)c12 [Compound I-83, 4-((3-fluoro-2-methoxyphenyl)amino)-2-methyl-6-((4-methylpyridin-2-yl)amino)-1,2-dihydro-3H-pyrazolo[3,4-b]pyridin-3-one]
1000 to 10000 |  | COc1c(Cl)cccc1Nc1cc(Nc2cc(CO)ccn2)nc2[nH]n(C)c(=O)c12 [Compound I-101, 4-((3-chloro-2-methoxyphenyl)amino)-6-((4-(hydroxymethyl)pyridin-2-yl)amino)-2-methyl-1,2-dihydro-3H-pyrazolo[3,4-b]pyridin-3-one]
> 10000 |  | CCc1ncc(Nc2cc(Nc3cccc(F)c3OC)c3c(=O)n(C)[nH]c3n2)nc1C#N [Compound I-148, 3-ethyl-6-((4-((3-fluoro-2-methoxyphenyl)amino)-2-methyl-3-oxo-2,3-dihydro-1H-pyrazolo[3,4-b]pyridin-6-yl)amino)pyrazine-2-carbonitrile]
> 10000 |  | COc1c(Nc2cc(Nc3cccc(C#N)n3)nc3[nH]n(C)c(=O)c23)cccc1-c1ncn(C)n1 [Compound I-30, 6-((4-((2-methoxy-3-(1-methyl-1H-1,2,4-triazol-3-yl)phenyl)amino)-2-methyl-3-oxo-2,3-dihydro-1H-pyrazolo[3,4-b]pyridin-6-yl)amino)picolinonitrile]
> 10000 |  | COc1c(Cl)cccc1Nc1cc(Nc2cnc(C3CC3)c(C#N)n2)nc2[nH]n(C)c(=O)c12 [Compound I-146, 6-((4-((3-chloro-2-methoxyphenyl)amino)-2-methyl-3-oxo-2,3-dihydro-1H-pyrazolo[3,4-b]pyridin-6-yl)amino)-3-cyclopropylpyrazine-2-carbonitrile]
100 to 500 |  | COc1c(Nc2cc(Nc3ccc(C)cn3)nc3[nH]n(C)c(=O)c23)cccc1-c1ncn(C)n1 [Compound I-16, 4-((2-methoxy-3-(1-methyl-1H-1,2,4-triazol-3-yl)phenyl)amino)-2-methyl-6-((5-methylpyridin-2-yl)amino)-1H-pyrazolo[3,4-b]pyridin-3(2H)-one]
< 100 |  | COc1c(Nc2cc(Nc3ccc(C)nn3)nc3[nH]n(C)c(=O)c23)cccc1-c1nnn(C)n1 [Compound I-10, 4-((2-methoxy-3-(2-methyl-2H-tetrazol-5-yl)phenyl)amino)-2-methyl-6-((6-methylpyridazin-3-yl)amino)-1,2-dihydro-3H-pyrazolo[3,4-b]pyridin-3-one]
 | 1000 to 10000 | COc1c(Nc2cc(NC(=O)C3CC3)ncc2-c2nnc(C)s2)cccc1-c1ncn(C)n1 [VIII-7, N-(4-((2-methoxy-3-(1-methyl-1H-1,2,4-triazol-3-yl)phenyl)amino)-5-(5-methyl-1,3,4-thiadiazol-2-yl)pyridin-2-yl)cyclopropanecarboxamide]
1000 to 10000 |  | COc1c(F)cccc1Nc1cc(Nc2ccc(N3CCOCC3)cn2)nc2[nH]n(C)c(=O)c12 [Compound I-89, 4-((3-fluoro-2-methoxyphenyl)amino)-2-methyl-6-((5-morpholinopyridin-2-yl)amino)-1,2-dihydro-3H-pyrazolo[3,4-b]pyridin-3-one]
> 10000 |  | COc1c(Cl)cccc1Nc1cc(Nc2cnc(C(C)C)c(C#N)n2)nc2[nH]n(C)c(=O)c12 [Compound I-158, 6-((4-((3-chloro-2-methoxyphenyl)amino)-2-methyl-3-oxo-2,3-dihydro-1H-pyrazolo[3,4-b]pyridin-6-yl)amino)-3-isopropylpyrazine-2-carbonitrile]
< 100 |  | COc1c(Nc2cc(Nc3cc(C)nc(C)n3)nc3[nH]n(C)c(=O)c23)cccc1-c1nnn(C)n1 [Compound I-9, 6-((2,6-dimethylpyrimidin-4-yl)amino)-4-((2-methoxy-3-(2-methyl-2H-tetrazol-5-yl)phenyl)amino)-2-methyl-1,2-dihydro-3H-pyrazolo[3,4-b]pyridin-3-one]
100 to 500 |  | Cc1ccc(Nc2cc(Nc3ccccc3S(C)(=O)=O)c3c(=O)n(C)[nH]c3n2)nc1 [Compound I-111, 2-methyl-6-((5-methylpyridin-2-yl)amino)-4-((2-(methylsulfonyl)phenyl)amino)-1,2-dihydro-3H-pyrazolo[3,4-b]pyridin-3-one]
100 to 500 |  | Cn1[nH]c2nc(Nc3cccc(C(F)(F)F)n3)cc(Nc3ccccc3S(C)(=O)=O)c2c1=O [Compound I-113, 2-methyl-4-((2-(methylsulfonyl)phenyl)amino)-6-((6-(trifluoromethyl)pyridin-2-yl)amino)-1,2-dihydro-3H-pyrazolo[3,4-b]pyridin-3-one]
100 to 500 |  | COc1c(Nc2cc(Nc3ccc(C#N)cn3)nc3[nH]n(C)c(=O)c23)cccc1-c1ncn(C)n1 [Compound I-25, 6-((4-((2-methoxy-3-(1-methyl-1H-1,2,4-triazol-3-yl)phenyl)amino)-2-methyl-3-oxo-2,3-dihydro-1H-pyrazolo[3,4-b]pyridin-6-yl)amino)nicotinonitrile]
100 to 500 |  | Cn1[nH]c2nc(NC(=O)C3CC3(F)F)cc(Nc3ccc(C4CC4)cc3S(C)(=O)=O)c2c1=O (stereo not shown) [Compound I-239, N-(4-((4-cyclopropyl-2-(methylsulfonyl)phenyl)amino)-2-methyl-3-oxo-2,3-dihydro-1H-pyrazolo[3,4-b]pyridin-6-yl)-2,2-difluorocyclopropane-1-carboxamide]
 | 100 to 1000 | COc1c(Nc2cc(Nc3cccc(C#N)n3)ncc2-c2nnc(CO)o2)cccc1-c1ncn(C)n1 [VIII-13, 6-((5-(5-(hydroxymethyl)-1,3,4-oxadiazol-2-yl)-4-((2-methoxy-3-(1-methyl-1H-1,2,4-triazol-3-yl)phenyl)amino)pyridin-2-yl)amino)picolinonitrile]
> 10000 |  | COc1c(Cl)cccc1Nc1cc(Nc2cncc(C#N)n2)nc2[nH]n(C)c(=O)c12 [Compound I-117, 6-((4-((3-chloro-2-methoxyphenyl)amino)-2-methyl-3-oxo-2,3-dihydro-1H-pyrazolo[3,4-b]pyridin-6-yl)amino)pyrazine-2-carbonitrile]
> 10000 |  | COc1c(Nc2cc(Nc3cc(C)ccn3)nc3[nH]n(C)c(=O)c23)cccc1-c1nnn(C)n1 [Compound I-5, 4-((2-methoxy-3-(2-methyl-2H-tetrazol-5-yl)phenyl)amino)-2-methyl-6-((4-methylpyridin-2-yl)amino)-1,2-dihydro-3H-pyrazolo[3,4-b]pyridin-3-one]
100 to 500 |  | COc1c(Nc2cc(Nc3ccc(C4CC4)cn3)nc3[nH]n(C)c(=O)c23)cccc1-c1nnn(C)n1 [Compound I-59, 6-((5-cyclopropylpyridin-2-yl)amino)-4-((2-methoxy-3-(2-methyl-2H-tetrazol-5-yl)phenyl)amino)-2-methyl-1,2-dihydro-3H-pyrazolo[3,4-b]pyridin-3-one]
100 to 500 |  | COc1c(Cl)cccc1Nc1cc(Nc2cc(C)nc(C)n2)nc2[nH]n(C)c(=O)c12 [Compound I-96, 4-((3-chloro-2-methoxyphenyl)amino)-6-((2,6-dimethylpyrimidin-4-yl)amino)-2-methyl-1,2-dihydro-3H-pyrazolo[3,4-b]pyridin-3-on]

Structure (SMILES) | Kd (Table 4, JH2 binding assay) [pM] | Kd [1] [pM]
Cn1[nH]c2nc(NC(=O)[C@@H]3C[C@@H]3F)cc(Nc3ccc(C4CC4)cc3S(C)(=O)=O)c2c1=O [Compound I-210] | 100 to 500 | 
Cn1[nH]c2nc(Nc3cccc(C(F)(F)F)n3)cc(Nc3ccc(C4CC4)cc3S(C)(=O)=O)c2c1=O [Compound I-215, 4-((4-cyclopropyl-2-(methylsulfonyl)phenyl)amino)-2-methyl-6-((6-(trifluoromethyl)pyridin-2-yl)amino)-1,2-dihydro-3H-pyrazolo[3,4-b]pyridin-3-one] | 100 to 500 | 
Cc1cc(Nc2cc(Nc3ccc(C4CC4)cc3S(C)(=O)=O)c3c(=O)n(C)[nH]c3n2)nc(C)n1 [Compound I-206, 4-((4-cyclopropyl-2-(methylsulfonyl)phenyl)amino)-6-((2,6-dimethylpyrimidin-4-yl)amino)-2-methyl-1,2-dihydro-3H-pyrazolo[3,4-b]pyridin-3-one] | 500 to 1000 | 
COc1c(Nc2cc(NC(=O)C3CC3)nc3[nH]n(C)c(=O)c23)cccc1-c1nc(C)n(C)n1 [Compound I-53] | 100 to 500 | 
Cn1[nH]c2nc(Nc3cncc(C#N)n3)cc(Nc3ccc(C4CC4)cc3S(C)(=O)=O)c2c1=O [Compound I-212, 6-((4-((4-cyclopropyl-2-(methylsulfonyl)phenyl)amino)-2-methyl-3-oxo-2,3-dihydro-1H-pyrazolo[3,4-b]pyridin-6-yl)amino)pyrazine-2-carbonitrile] | > 10000 | 
COCc1ccc(Nc2cc(Nc3ccc(C)c(C(F)(F)F)n3)nc3[nH]n(C)c(=O)c23)c(OC)c1 [Compound I-93, 4-((2-methoxy-4-(methoxymethyl)phenyl)amino)-2-methyl-6-((5-methyl-6-(trifluoromethyl)pyridin-2-yl)amino)-1,2-dihydro-3H-pyrazolo[3,4-b]pyridin-3-one] | 1000 to 10000 | 
CN(c1ccccc1Nc1cc(NC(=O)[C@@H]2C[C@@H]2F)nc2[nH]n(C)c(=O)c12)S(C)(=O)=O [Compound I-216, (1S,2S)-2-fluoro-N-(2-methyl-4-((2-(N-methylmethylsulfonamido)phenyl)amino)-3-oxo-2,3-dihydro-1H-pyrazolo[3,4-b]pyridin-6-yl)cyclopropane-1-carboxamide] | 100 to 500 | 
COc1c(Nc2cc(NC(=O)C3CC3)nc3[nH]n(C)c(=O)c23)cccc1C(N)=O [Compound I-102, 3-((6-(cyclopropanecarboxamido)-2-methyl-3-oxo-2,3-dihydro-1H-pyrazolo[3,4-b]pyridin-4-yl)amino)-2-methoxybenzamide] | > 10000 | 
COCc1ccnc(Nc2cc(Nc3ccc(C4CC4)cc3S(C)(=O)=O)c3c(=O)n(C)[nH]c3n2)c1 [Compound I-214, 4-((4-cyclopropyl-2-(methylsulfonyl)phenyl)amino)-6-((4-(methoxymethyl)pyridin-2-yl)amino)-2-methyl-1,2-dihydro-3H-pyrazolo[3,4-b]pyridin-3-one] | 100 to 500 | 
Cn1[nH]c2nc(NC(=O)C3CC3)cc(Nc3ccc(C(=O)N4CCCC4)cc3OC(F)F)c2c1=O [Compound I-151] | > 10000 | 
